Measurements: patent US20240082125A1, “USE OF A SHORT CHAIN FATTY ACID AS ANTIDANDRUFF AGENT” (NANYANG TECHNOLOGICAL UNIVERSITY, priority 2020, published 2024)
Where “and” joins values, the source holds several entries; their conditions need not be identical. Equal values may be shown once.

How the values were obtained:
[1] = tested on: M. restricta ATCC MYA-4611; test: M. restricta growth assay, total cell numbers by SYTO9 fluorescence; format: cell-based, Malassezia restricta; conditions: for growth of Malassezia restricta: 30 mM, MD medium pH 6, FIG. 1; for M. restricta (log10 total cell counts): 50 mM, after 72 hours, SYTO9, starting density 1×10^7 cells/ml, replicates #1-#3
Protocol: (§1) M. restricta ATCC MYA-4611, S. epidermidis ATCC 12228, and C. acnes ATCC 6919 were purchased from ATCC. M. restricta was routinely cultured in modified Dixon (MD) medium (pH 6), composed of 36 g of Malt extract (Sigma 70167), 20 g of Dessicated Oxbile (Sigma 70168), 6 g of Bacto™ Peptone (BD 211677), 1% (v/v) Tween 40 (Sigma P1504), 0.2% (v/v) Oleic Acid (Fluka 75096), and 0.2% (v/v) Glycerol (Promega H5433) in 1 liter of dH2O. C. acnes and S. epidermidis were cultured in modified brain heart infusion (MBHI) medium (pH 7), containing 37 g of BHI base (Accumedia 7116B), 0.4% (v/v) of Tween-40 (Sigma P1504), 0.2% (v/v) of Oleic acid (Fluka 75096), and 0.2% (v/v) of Glycerol (Promega H5433) in 1 liter of dH2O. M. restricta and S. epidermidis were routinely grown under aerobic conditions, shaken at 200 rpm, and C. acnes was grown under anaerobic conditions. All organisms were grown at 33° C. Wherever required, media was supplemented with: sodium acetate (CH3COOH, Sigma Ref. 32319), sodium propionate ([…], Sigma Ref. P1880), sodium butyrate (CH3(CH2)2COOH, Sigma Ref. 303410), valeric acid (CH3(CH2)3COOH, Fluka Ref. 75054). For valeric acid, the pH in modified cell media was neutralized with NaOH (Sodium hydroxide, Sigma 283060).
M. restricta cells from 1 ml of the culture were harvested by centrifugation at 10,000×g for 5 minutes at room temperature. Cells were washed once, pelleted, and re-suspended in 0.9% NaCl solution. Equal volumes of the above cell suspension and SYTO 9 working stock (3 ul SYTO 9 component of the Live/Dead BacLight bacterial viability kit, ThermoFisher Scientific, L7012, diluted in 1 ml of 0.9% NaCl solution) were mixed well, incubated in dark for 10 minutes, and fluorescent intensity unit was measured in a Tecan microplate reader with excitation/emission wavelengths of 485/530 nm. A standard for correlation of fluorescence units and concentration was prepared using a fluorimeter and hemocytometer under a light microscope. This standard curve was used to calculate the total cell numbers.
(§2) M. restricta cells stored as glycerol stocks (30% glycerol in MD medium) were revived by plating on MD agar plates and incubated for 2-3 days at 33° C. A pre-culture was made from the lawn of cells grown on the agar plate. Cells from % of the plate was scrapped off, homogenized after suspending in 70 ml of MD medium in a 250 ml baffled erlenmeyer flask and incubated for 24 hours at 33° C. at 200 rpm. For experiments, 10^7 cell/ml was inoculated in fresh MD medium with or without the short chain fatty acids. Growth was monitored by measuring the cell density with SYTO 9 for up to 24 hours or 96 hours. C. acnes and S. epidermidis were inoculated into MBHI medium at starting cell density of OD600 0.05 and 0.25, respectively. Bacterial growth was measured by plating the serially diluted cultures on Brain Heart Infusion agar plates at different time points and colonies were counted after 72 hours for C. acnes and 24 hours for S. epidermidis.
(§3) M. restricta ATCC MYA-4611, S. epidermidis ATCC 12228 and C. acnes ATCC 6919 were purchased from ATCC. M. restricta were routinely cultured in Modified Dixon (MD) medium (pH 6), composed of 36 g of Malt extract (Sigma 70167), 20 g of Dessicated Oxbile (Sigma 70168), 6 g of Bacto™ Peptone (BD 211677), 1% (v/v) Tween 40 (Sigma P1504), 0.2% (v/v) Oleic Acid (Fluka 75096), and 0.2% (v/v) Glycerol (Promega H5433) in 1 liter of dH2O. C. acnes and S. epidermidis were cultured in modified brain heart infusion (MBHI) medium (pH 7), containing 37 g of BHI base (Accumedia 7116B), 0.4% (v/v) of Tween-40 (Sigma P1504), 0.2% (v/v) of Oleic acid (Fluka 75096), and 0.2% (v/v) of Glycerol (Promega H5433) in 1 liter of dH2O. M. restricta and S. epidermidis were routinely grown under aerobic conditions, shaken at 200 rpm, and C. acnes was grown under anaerobic conditions. All organisms were grown at 33° C.

C. acnes ATCC 6919 = test: C. acnes growth assay, colony forming units; format: cell-based, Cutibacterium acnes; conditions: for growth of C. acnes: 30 mM, MBHI medium pH 7, anaerobic, FIG. 2; for C. acnes (log10 CFUs/ml): 50 mM, after 72 hours, replicates #1-#3
Protocol: as §1, §2
(§4) Bacterial growth was quantified by plating the serially diluted cultures on Brain Heart Infusion agar plates at different time points and colonies were counted after 72 hours for C. acnes and 24 hours for Staphylococcus sp.
(§5) M. restricta ATCC MYA-4611, S. epidermidis ATCC 12228 and C. acnes ATCC 6919 were purchased from ATCC. M. restricta were routinely cultured in Modified Dixon (MD) medium (pH 6), composed of 36 g of Malt extract (Sigma 70167), 20 g of Dessicated Oxbile (Sigma 70168), 6 g of Bacto™ Peptone (BD 211677), 1% (v/v) Tween 40 (Sigma P1504), 0.2% (v/v) Oleic Acid (Fluka 75096), and 0.2% (v/v) Glycerol (Promega H5433) in 1 liter of dH2O. C. acnes and S. epidermidis were cultured in modified brain heart infusion (MBHI) medium (pH 7), containing 37 g of BHI base (Accumedia 7116B), 0.4% (v/v) of Tween-40 (Sigma P1504), 0.2% (v/v) of Oleic acid (Fluka 75096), and 0.2% (v/v) of Glycerol (Promega H5433) in 1 liter of dH2O. M. restricta and S. epidermidis were routinely grown under aerobic conditions, shaken at 200 rpm, and C. acnes was grown under anaerobic conditions. All organisms were grown at 33° C. Wherever required, media was supplemented with 50 mM of: sodium propionate ([…], Sigma Ref. P1880), sodium butyrate (CH3(CH2)2COOH, Sigma Ref. 303410), valeric acid (CH3(CH2)3COOH, Fluka Ref. 75054). For valeric acid, the pH in modified cell media was neutralized with NaOH (Sodium hydroxide, Sigma 283060).
(§6) M. restricta cells stored as glycerol stocks (30% glycerol in MD medium) were revived by plating on MD agar plates and incubated for 2-3 days at 33° C. A pre-culture was made from the lawn of cells grown on the agar plate.

[2] = tested on: S. epidermidis ATCC 12228; test: S. epidermidis growth assay, colony forming units; format: cell-based, Staphylococcus epidermidis; conditions: for growth of S. epidermidis: 30 mM, MBHI medium pH 7, aerobic, FIG. 3; for S. epidermidis (log10 CFUs/ml): 50 mM, after 24 hours, replicates #1-#3
Protocol: as §1, §2, §4, §5, §6

[3] = tested on: M. restricta ATCC MYA-4611; test: M. restricta cell viability by ATP estimation (BacTiterGlo); format: cell-based, Malassezia restricta; conditions: 50 mM, ATP in lysate of 24 hours grown cells, replicates #1-#3
Protocol: as §3, with “M. restricta and S. epidermidis were routinely grown under aerobic conditions, shaken at 200 rpm, and C. acnes was grown under anaerobic conditions. All organisms were grown at 33° C.” left out
M. restricta cells stored as glycerol stocks (30% glycerol in MD medium) were revived by plating on MD agar plates and incubated for 2-3 days at 33° C. […] Growth was monitored by measuring the cell density with SYTO 9 or by estimating the ATP concentration (see below) for up to 24 hours or 96 hours. […] Bacterial growth was measured by plating the serially diluted cultures on Brain Heart Infusion agar plates at different time points and colonies were counted after 72 hours for C. acnes and 24 hours for S. epidermidis.
Cellular ATP was measured using the BacTiterGlo Microbial cell viability (Promega) kit following manufacturers protocol. […]

Structure (SMILES) | growth of Malassezia restricta [1] | M. restricta (log10 total cell counts) [1] | growth of C. acnes (C. acnes ATCC 6919) | C. acnes (log10 CFUs/ml) (C. acnes ATCC 6919) | growth of S. epidermidis [2] | S. epidermidis (log10 CFUs/ml) [2] | M. restricta (Relative luminescence units) [3]
CC(=O)[O-].[Na+] [acetate, sodium acetate] | No effect |  |  |  |  |  | 
CCCC(=O)[O-].[Na+] [NaB, sodium butyrate] | completely inhibit | 6.94 log10 total cell counts and 6.88 log10 total cell counts (2×) | do not affect | 8.26 log10 CFUs/ml and 8.10 log10 CFUs/ml and 8.34 log10 CFUs/ml | do not affect | 9.15 log10 CFUs/ml and 8.87 log10 CFUs/ml and 8.90 log10 CFUs/ml | 
CCCCCC(=O)OCC [EH_Cpo, ethyl caproate] |  | 6.80 log10 total cell counts and 6.69 log10 total cell counts and 6.74 log10 total cell counts |  | 9.94 log10 CFUs/ml and 8.47 log10 CFUs/ml and 8.00 log10 CFUs/ml |  | 5.55 log10 CFUs/ml and 5.54 log10 CFUs/ml and 5.66 log10 CFUs/ml | 
CCCCCCCC(=O)OCC(O)CO (stereo not shown) [GM_Cpy, glyceryl mono caprylate] |  |  |  | 0.00 log10 CFUs/ml |  | 0.00 log10 CFUs/ml | 16700 Relative luminescence units and −1470 Relative luminescence units and −2030 Relative luminescence units
CCCCCCCC(=O)O [Cpy, caprylic acid] |  | 6.98 log10 total cell counts and 6.91 log10 total cell counts and 6.84 log10 total cell counts |  | 0.00 log10 CFUs/ml |  | 3.34 log10 CFUs/ml and 3.03 log10 CFUs/ml and 3.00 log10 CFUs/ml | 
CCC(=O)[O-].CCC(=O)[O-].[Zn+2] [Zn_Pro, zinc propionate] |  |  |  | 0.00 log10 CFUs/ml |  | 5.00 log10 CFUs/ml and 5.05 log10 CFUs/ml and 0.00 log10 CFUs/ml | 12500 Relative luminescence units and 11900 Relative luminescence units and 10300 Relative luminescence units
CCCCC(=O)[O-].[Na+] [NaV, sodium valerate] | completely inhibit | 6.86 log10 total cell counts and 6.92 log10 total cell counts and 6.93 log10 total cell counts | do not affect | 8.90 log10 CFUs/ml and 8.03 log10 CFUs/ml and 8.00 log10 CFUs/ml | do not affect | 8.90 log10 CFUs/ml and 9.29 log10 CFUs/ml and 9.08 log10 CFUs/ml | 
CCCCCC(=O)O [Cpo, caproic acid] |  | 6.93 log10 total cell counts and 6.95 log10 total cell counts and 6.87 log10 total cell counts |  | 8.29 log10 CFUs/ml and 8.26 log10 CFUs/ml and 8.41 log10 CFUs/ml |  | 7.64 log10 CFUs/ml and 7.67 log10 CFUs/ml and 7.57 log10 CFUs/ml | 
